What was measured:
MDMX = molecular target: T1, MDMX (Homo sapiens, UniProt O15151); assay: biotin-InuA streptavidin pulldown with free InuA competition; time-dependent covalent binding kinetics by Western blot (biotin-InuA)
T1 construct: gene MDM4; GST-MDMX RING (RING domain)
T1 sequence (O15151 428-490 limits assumed): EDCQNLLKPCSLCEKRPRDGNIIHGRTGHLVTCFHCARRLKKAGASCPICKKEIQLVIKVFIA

MDM2 = molecular target: T2, MDM2 (Homo sapiens, UniProt Q00987); assay: as above
T2 construct: GST-MDM2 RING (RING domain)
T2 sequence (Q00987 428-491 limits assumed): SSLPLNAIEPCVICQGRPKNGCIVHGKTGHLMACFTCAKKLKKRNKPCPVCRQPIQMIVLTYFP

- KI (inactivation) (MDMX): 860 nM
- KI (inactivation) (MDM2): 550 nM
Substance: Inulanolide A [InuA]

Reference: article PMC5735069, “Targeting the NFAT1-MDM2-MDMX Network Inhibits the Proliferation and Invasion of Prostate Cancer Cells, Independent of p53 and Androgen” (Frontiers in Pharmacology, 2017)
